What was measured:
Assay type in all cases: cell-based, human
[1] = test system: GC; test: Seahorse Mito Stress Test; settings: forskolin 20 μM for 24 hours
Description: FIG. 5A is a line graph showing the oxygen consumption rate from a Seahorse Mito Stress Test assay of GC compared to white adipocytes (WA). Cells were stimulated with forskolin (FSK, 20 uM) for 24 hours prior to treatment, and oligomycin (3 μM), FCCP (3 μM), and antimycin a/rotenone (5 μM) were added at indicated time points. n=9, where n is the number of independent replicates for each cell type/condition. Assay was normalized to total protein content. FIG. 5B is a line graph showing extracellular acidification rate from the assay in FIG. 5A. FIGS. 5C-5E are bar graphs showing basal respiration rate (5C) from the assay maximal respiration (5D) and proton leak (5E) calculated from assay performed in FIG. 5A. FIG. 5F is a bar graph showing the results of a lipolysis assay of ADSCs or GC (BA), treated with forskolin for indicated time period. FIG. 5G is a bar graph showing quantification of thermogenic dye assay of GC with or without forskolin treatment. […]
To perform the assay, ADSCs were plated on XFe24 plates (Agilent) at 5000 cell/cm^2 and grown to confluency. […] Following the assay, cells were lysed using RIPA buffer and protein concentration was determined by Bradford assay. Data was normalized by protein concentration and analyzed in Wave software (Agilent).

[2] = test system: beige adipocytes; test: High-throughput primary screen, lipolysis assay (glycerol release), 384-well; settings: 20 μM, 24 hours of drug treatment, vs untreated beige adipocytes
Description: ADSCs were seeded at 5000 cell/cm^2 in 12-well plates, grown for 5 days and then induced to differentiate into GC for 20 days. […] Cells were treated with forskolin (20 μM) for indicated time periods and supernatant samples were collected. Lipolysis assay was performed with free glycerol reagent (Sigma, F6428-40ML), according to manufacturer instructions.
ADSCs were plated in 384-well plates at a density of 5000 cell/cm2 and grown to confluency over ˜4 days. Cells were then differentiated to beige adipocytes using B-8 medium for 21 days. All cell culture and incubations in the 384-well format were done at 37° C. and 5% CO2. […] The use of FDA-approved drugs may allow for re-purposing for therapeutic use.
Lipolysis assays were performed after 24 hours of drug treatment by measuring free glycerol released in the 384-well format, using the procedure described above. Absorbance for each compound was normalized to untreated control samples for each plate and calculated as a percent of the control. Cut-offs for “activating” and “inhibiting” compounds were set at 2-fold. Validation assays were performed for select compounds at a range of concentration doses.

[3] = test system: UCP1; test: qRT-PCR of UCP1 transcript in beige adipocytes -/+ forskolin; settings: beige adipocytes stimulated with FSK (20 uM)
Description: (§1) FIG. 2A is a bar graph showing RNA expression levels by qRT-PCR for indicated genes (UCP1, DIO2) for adipose derived stem cells (ADSCs), GlucoCytes (GC), or GC with forskolin (FSK, 20 uM). FIG. 2B is a bar graph showing quantitation of immunostaining data (UCP1) from 6 independent fields of view. FIGS. 2C and 2D are bar graphs showing qRT-PCR of UCP1 of GC induced from an additional line purchased from ThermoFisher (2C) and an immortalized ADSC line purchased from ATCC (ASC52-telo) (2D). Transcript levels were determined by qRT-PCR. n=3 for each independent replicate. Data are mean+/−standard deviation. *P<0.0.05, **P<0.01, ***P<0.005. […] Cell lysates were collected at indicated days and RNA was isolated and analyzed by qRT-PCR for marker expression. […] Each line was differentiated for 21 days to beige adipocytes using B-8 medium and transcript levels of UCP1 (2Q), PPARGC1 (2R), IRF4 (2S), and ADIPOQ (2T) were measured by Taqman qRT-PCR for indicated genes +/−FSK for 6 hours (20 μM).
(§2) Cells were washed with DPBS, lysed directly on the plate and used for RNA isolation with the E.Z.N.A Total RNA Kit (Omega, R6834-02) according to manufacturer instructions. RNA quantitation was performed with the Biotek Synergy 2 plate reader and cDNA was synthesized using 1 ug of RNA with the iScript cDNA Synthesis Kit (Bio-Rad, 1708841). […]

[4] = test system: DIO2; test: qRT-PCR of DIO2 transcript in beige adipocytes -/+ forskolin; settings: beige adipocytes stimulated with FSK (20 uM)
Description: as §1, §2

For `C=C[C@@]1(C)CC(=O)[C@]2(O)[C@@]3(C)[C@@H](O)CCC(C)(C)[C@@H]3[C@H](O)[C@H](OC(C)=O)[C@@]2(C)O1` [Forskolin], the “Elevation of uncoupled respiration (proton leak) relative to basal conditions” value [1] was 64.7%, the “% Control (relative levels of glycerol release)” value [2] was 262.31 % control and the “UCP1 transcript level compared to ADSCs” value [3] was 520 fold. For the same molecule, the “DIO2 transcript level compared to ADSCs” value [4] was 130 fold.

Source: US20220079993A1, “NON-NATURALLY OCCURRING THERMOGENIC ADIPOCYTES, METHODS OF MAKING, AND METHODS OF USE THEREOF” (University of Georgia Research Foundation, Inc., priority 2019, published 2022)
